# pEC50: −log10 of the molar value.
# How the values were obtained:
# [1] = biological target: T1, hTLR7 (Homo sapiens, UniProt Q9NYK1); experiment: EC50 of GS9620 for hTLR7 as reported in WO2016023511A1; conditions: in words, from the EC50 values reported in WO2016023511A1
# T1 construct: host or cells: HEK-Blue hTLR7 (HEK293-derived reporter line)
# T1 sequence (Q9NYK1 27-1049): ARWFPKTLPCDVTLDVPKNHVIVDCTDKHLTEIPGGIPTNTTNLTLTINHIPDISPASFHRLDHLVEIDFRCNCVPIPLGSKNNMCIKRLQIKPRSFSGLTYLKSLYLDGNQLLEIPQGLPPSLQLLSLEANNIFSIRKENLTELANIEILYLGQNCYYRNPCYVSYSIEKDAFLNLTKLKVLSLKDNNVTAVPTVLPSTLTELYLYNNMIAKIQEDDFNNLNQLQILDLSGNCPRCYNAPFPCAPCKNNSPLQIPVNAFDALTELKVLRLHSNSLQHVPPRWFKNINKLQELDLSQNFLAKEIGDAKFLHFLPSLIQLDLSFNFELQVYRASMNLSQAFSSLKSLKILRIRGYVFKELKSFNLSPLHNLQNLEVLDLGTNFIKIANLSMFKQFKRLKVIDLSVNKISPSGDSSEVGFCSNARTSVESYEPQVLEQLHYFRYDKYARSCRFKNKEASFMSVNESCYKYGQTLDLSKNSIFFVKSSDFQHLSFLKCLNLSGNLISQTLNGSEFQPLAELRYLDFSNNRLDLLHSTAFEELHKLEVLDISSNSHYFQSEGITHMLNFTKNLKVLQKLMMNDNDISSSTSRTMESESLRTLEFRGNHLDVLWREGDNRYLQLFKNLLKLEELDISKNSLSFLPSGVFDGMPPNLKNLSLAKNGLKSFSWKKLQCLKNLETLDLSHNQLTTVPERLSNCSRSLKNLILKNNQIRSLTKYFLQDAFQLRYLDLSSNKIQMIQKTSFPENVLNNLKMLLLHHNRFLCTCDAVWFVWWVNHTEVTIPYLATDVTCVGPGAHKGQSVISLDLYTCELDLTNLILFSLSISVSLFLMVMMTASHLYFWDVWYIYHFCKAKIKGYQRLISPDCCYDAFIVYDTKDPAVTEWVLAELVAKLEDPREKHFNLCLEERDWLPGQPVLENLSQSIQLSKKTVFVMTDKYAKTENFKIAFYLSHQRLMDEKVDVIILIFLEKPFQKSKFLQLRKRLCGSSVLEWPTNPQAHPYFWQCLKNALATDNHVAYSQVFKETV
# [2] = biological target: T1, hTLR7; experiment: Activation activity test of hTLR7 (HEK-Blue hTLR7 cells, QUANTI-Blue OD650); assay type: cell-based; conditions: 24 hours incubation, read-out: TLR7 (EC50)
# [3] = biological target: T2, hTLR8 (Homo sapiens, UniProt Q9NR97); experiment: Activation activity test of hTLR8 (HEK-Blue hTLR8 cells, QUANTI-Blue OD650); assay type: cell-based; conditions: HEK-Blue hTLR8 cells, 24 hours incubation; read-out: TLR8 (EC50)
# T2 construct: host or cells: HEK-Blue hTLR8 (HEK293-derived reporter line)
# T2 sequence (Q9NR97 27-1041): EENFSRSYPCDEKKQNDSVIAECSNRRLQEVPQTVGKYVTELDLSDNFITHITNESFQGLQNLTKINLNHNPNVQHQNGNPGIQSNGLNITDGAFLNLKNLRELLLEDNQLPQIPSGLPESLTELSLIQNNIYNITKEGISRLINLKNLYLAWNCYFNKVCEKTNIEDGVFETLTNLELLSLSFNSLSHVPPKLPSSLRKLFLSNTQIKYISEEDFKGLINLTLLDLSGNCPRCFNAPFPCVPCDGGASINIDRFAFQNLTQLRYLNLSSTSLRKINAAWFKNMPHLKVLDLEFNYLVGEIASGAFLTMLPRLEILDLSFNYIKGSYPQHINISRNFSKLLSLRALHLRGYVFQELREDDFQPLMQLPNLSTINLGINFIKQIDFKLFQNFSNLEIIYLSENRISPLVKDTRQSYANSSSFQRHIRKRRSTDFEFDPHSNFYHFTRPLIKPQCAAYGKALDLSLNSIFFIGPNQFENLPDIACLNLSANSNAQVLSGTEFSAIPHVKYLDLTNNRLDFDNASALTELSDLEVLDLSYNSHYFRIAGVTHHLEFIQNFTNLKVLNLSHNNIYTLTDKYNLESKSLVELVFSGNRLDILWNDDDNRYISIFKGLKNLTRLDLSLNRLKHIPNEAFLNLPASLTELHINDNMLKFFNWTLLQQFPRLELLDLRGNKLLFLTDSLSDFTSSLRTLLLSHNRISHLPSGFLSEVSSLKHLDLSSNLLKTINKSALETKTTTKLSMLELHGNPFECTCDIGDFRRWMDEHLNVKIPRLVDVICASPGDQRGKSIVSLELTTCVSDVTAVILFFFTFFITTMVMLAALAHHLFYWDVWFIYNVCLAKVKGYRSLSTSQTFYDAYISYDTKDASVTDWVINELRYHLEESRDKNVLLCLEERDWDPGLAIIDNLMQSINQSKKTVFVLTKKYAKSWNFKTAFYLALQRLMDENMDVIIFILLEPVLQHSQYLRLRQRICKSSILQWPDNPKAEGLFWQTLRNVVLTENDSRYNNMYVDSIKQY
SMILES,selectivity to TLR7 [1],pEC50 [2],pEC50 [3]
CCCCOc1nc(N)c2c(n1)N(Cc1cccc(CN3CCCC3)c1)CC(=O)N2 [GS9620],poor,–,–
"COCCOc1ncc2[nH]c(=O)n(Cc3cccc(CN4CC[C@@H](F)C4)c3)c2n1 [Example 22, (R)-9-(3-((3-fluoropyrrolidin-1-yl)methyl)benzyl)-2-(2-methoxyethoxy)-7,9-dihydro-8H-purin-8-one]",–,4.00 to 5.00,< 4.00
"COCCOc1ncc2[nH]c(=O)n(Cc3cccc(CN4CCCCCC4)c3)c2n1 [Example 21, 2-(2-methoxyethoxy)-9-(3-(azepan-1-ylmethyl)benzyl)-7,9-dihydro-8H-purin-8-one]",–,4.00 to 5.00,< 4.00
"CCCCNc1ncc2[nH]c(=O)n(Cc3cccc(CN4CCCC4)c3)c2n1 [Example 31, 2-(butylamino)-9-(3-(pyrrolidin-1-ylmethyl)benzyl)-7,9-dihydro-8H-purin-8-one]",–,< 4.00,< 4.00
"CCCCSc1ncc2[nH]c(=O)n(Cc3cccc(CN4CCCC4)c3)c2n1 [Example 33, 2-butylthio-9-(3-(pyrrolidin-1-ylmethyl)benzyl)-7,9-dihydro-8H-purin-8-one]",–,< 4.00,< 4.00

# — patent US11084818B2 (HEPO PHARMACEUTICAL CO., LTD., priority 2016, dated 2021)
